Patent US11298363B2, “Triazolobenzazepines as vasopressin V1a receptor antagonists” (RICHTER GEDEON NYRT., priority 2017, dated 2022)

Assays:
[1] = biological target: T1, human vasopressin V1a receptor (Homo sapiens, UniProt P37288); assay: Human vasopressin V1a receptor binding assay; conditions: 1321N1 cell membranes, [3H]vasopressin; read-out: Ki (nM) on hV1a cell line
Procedure, shortened: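 Ki values come from IC50 via Cheng-Prusoff (KD from prior Scatchard), averaged over at least two independent runs. Human V1a membranes were incubated with radioligand 60 minutes at 27° C., bound ligand collected by filtration; (Arg^8)-vasopressin at 1.2×10^−6 M defined non-specific binding.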

[2] = biological target: T1, human vasopressin V1a receptor; assay: Functional assay on human vasopressin V1a receptor expressing cell line (intracellular Ca2+ fluorescence); type: cell-based; conditions: for inhibition at 1 µM: read-out: % at 1 μM, printed in the column IC50 (nM) on hV1a cell line; for IC50: 1321N1 cells, (Arg8)-vasopressin at EC80, read-out: IC50 (nM) on hV1a cell line

T1 sequence (P37288 whole entry): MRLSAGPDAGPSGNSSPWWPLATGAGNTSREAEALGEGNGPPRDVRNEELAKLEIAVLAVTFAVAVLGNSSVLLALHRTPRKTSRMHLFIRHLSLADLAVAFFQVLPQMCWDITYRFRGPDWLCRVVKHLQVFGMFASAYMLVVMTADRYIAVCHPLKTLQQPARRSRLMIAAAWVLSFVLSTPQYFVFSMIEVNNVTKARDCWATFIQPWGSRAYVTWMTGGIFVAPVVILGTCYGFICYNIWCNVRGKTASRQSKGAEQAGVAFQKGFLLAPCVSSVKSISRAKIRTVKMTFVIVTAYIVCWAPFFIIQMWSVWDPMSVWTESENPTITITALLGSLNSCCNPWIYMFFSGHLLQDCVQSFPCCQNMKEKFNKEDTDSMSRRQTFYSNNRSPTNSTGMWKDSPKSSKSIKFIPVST

Structure (SMILES) | Ki [1] [nM] | inhibition at 1 µM [2] [%] | IC50 [2] [nM]
CC(C)(C)OC(=O)NC1Cc2cc(Cl)ccc2-n2c(nnc2N2CCC(N3CCCCC3)CC2)C1 (stereo not drawn) [Example 95, Tert-butyl [1-(1,4′-bipiperidin-1′-yl)-8-chloro-5,6-dihydro-4H-[1,2,4]triazolo[4,3-a][1]benzazepin-5-yl]carbaminate] | 547 | 22 | 
CN(Cc1ccc(F)cc1)[C@H]1Cc2cc(Cl)ccc2-n2c(nnc2[C@H]2CC[C@H](Oc3ccccn3)CC2)C1 [Example 97, (5S)-8-chloro-N-(4-fluorobenzyl)-N-methyl-1-[trans-4-(pyridin-2-yloxy)cyclohexyl]-5,6-dihydro-4H-[1,2,4]triazolo[4,3-a][1]benzazepin-5-amine] | 122 | 34 | 
C=CC(=O)N[C@H]1Cc2cc(Cl)ccc2-n2c(nnc2[C@H]2CC[C@H](Oc3ccccn3)CC2)C1 [Example 98, N-{(5S)-8-chloro-1-[trans-4-(pyridin-2-yloxy)cyclohexyl]-5,6-dihydro-4H-[1,2,4]triazolo[4,3-a][1]benzazepin-5-yl}prop-2-enamide] | 2.1 |  | 39
O=C1Cc2ccccc2-n2c(nnc2[C@H]2CC[C@H](Oc3ccccn3)CC2)C1 [Example 102, 1-[trans-4-(pyridin-2-yloxy)cyclohexyl]-4H-[1,2,4]triazolo[4,3-a][1]benzazepin-5(6H)-one] | 5.9 |  | 23
CC(C)OC1Cc2cc(Cl)ccc2-n2c(nnc2[C@H]2CC[C@H](Oc3ccccn3)CC2)C1 (stereo partly drawn) [Example 105, 8-chloro-5-(propan-2-yloxy)-1-[trans-4-(pyridin-2-yloxy)cyclohexyl]-5,6-dihydro-4H-[1,2,4]triazolo[4,3-a][1]benzazepine] | 0.3 |  | 1.4
Clc1ccc2c(c1)CC1(Cc3nnc([C@H]4CC[C@H](Oc5ccccn5)CC4)n3-2)OCCCCO1 [Example 106, 8′-chloro-1′-[trans-4-(pyridin-2-yloxy)cyclohexyl]-4°,6′-spiro[1,3-dioxepane-2,5′-[1,2,4]triazolo[4,3-a][1]benzazepine]] | 0.1 |  | 1.8
OC1Cc2ccccc2-n2c(nnc2[C@H]2CC[C@H](Oc3ccccn3)CC2)C1 (stereo partly drawn) [Example 107, 1-[trans-4-(pyridin-2-yloxy)cyclohexyl]-5,6-dihydro-4H-[1,2,4]triazolo[4,3-a][1]benzazepin-5-ol] | 1 |  | 12
O=C([C@H]1CC[C@H](c2nnc3n2-c2ccc(Cl)cc2CC2(C3)OCCO2)CC1)N1CCOCC1 [Example 108, Trans-4-(8′-chloro-4′H,6′H-spiro[1,3-dioxolane-2,5′-[1,2,4]triazolo[4,3-a][1]benzazepin]-1′-yl)cyclohexyl(morpholin-4-yl)methanone] | 0.2 |  | 4.9
COC1Cc2ccccc2-n2c(nnc2[C@H]2CC[C@H](Oc3ccccn3)CC2)C1 (stereo partly drawn) [Example 109, 5-methoxy-1-[trans-4-(pyridin-2-yloxy)cyclohexyl]-5,6-dihydro-4H-[1,2,4]triazolo[4,3-a][1]benzazepine] | 0.4 |  | 2.7
O=C1Cc2cc(F)ccc2-n2c(nnc2[C@H]2CC[C@H](Oc3ccccn3)CC2)C1 [Example 110, 8-fluoro-1-[trans-4-(pyridin-2-yloxy)cyclohexyl]-4H-[1,2,4]triazolo[4,3-a][1]benzazepin-5(6H)-one] | 2.1 |  | 8.3
OC1Cc2cc(F)ccc2-n2c(nnc2[C@H]2CC[C@H](Oc3ccccn3)CC2)C1 (stereo partly drawn) [Example 111, 8-fluoro-1-[trans-4-(pyridin-2-yloxy)cyclohexyl]-5,6-dihydro-4H-[1,2,4]triazolo[4,3-a][1]benzazepin-5-ol] | 0.3 |  | 2.4
CC(C)(C)OC(=O)NC1Cc2cc(Cl)ccc2-n2c(nnc2[C@H]2CC[C@H](N3CCOCC3)CC2)C1 (stereo partly drawn) [Example 112, Tert-butyl {8-chloro-1-[trans-4-(morpholin-4-yl)cyclohexyl]-5,6-dihydro-4H-[1,2,4]triazolo[4,3-a][1]benzazepin-5-yl}carbamate] | 45.4 |  | 213
NC1Cc2cc(Cl)ccc2-n2c(nnc2[C@H]2CC[C@H](N3CCOCC3)CC2)C1 (stereo partly drawn) [Example 113, 8-chloro-1-[trans-4-(morpholin-4-yl)cyclohexyl]-5,6-dihydro-4H-[1,2,4]triazolo[4,3-a][1]benzazepin-5-amine] | 21 |  | 305
CC(C)NC1Cc2cc(Cl)ccc2-n2c(nnc2[C@H]2CC[C@H](N3CCOCC3)CC2)C1 (stereo partly drawn) [Example 114] | 26.5 |  | 205
CC(C)N1CC[C@]2(CC[C@@H](c3nnc4n3-c3ccc(Cl)cc3CC3(C4)OCCO3)CC2)C1=O [Example 115] | 0.5 |  | 0.8
CC(C)N1CC[C@]2(CC[C@@H](c3nnc4n3-c3ccc(Cl)cc3CC(O)C4)CC2)C1=O (stereo partly drawn) [Example 116, (5r,8r)-8-(8-chloro-5-hydroxy-5,6-dihydro-4H-[1,2,4]triazolo[4,3-a][1]benzazepin-1-yl)-2-(propan-2-yl)-2-azaspiro[4,5]decan-1-one] | 0.7 |  | 2.1
Clc1ccc2c(c1)C[C@H](N1CCCC1)Cc1nnc([C@H]3CC[C@H](Oc4ccccn4)CC3)n1-2 [Example 117, (5S)-8-chloro-1-[trans-4-pyridin-2-loxcyclohexyl]-5-(pyrrolidin-1-yl)-5,6-dihydro-4H-[1,2,4]triazolo[4,3-a][1]benzazepine] | 0.9 |  | 4.3
CC(C)(C)C(=O)N[C@H]1Cc2cc(Cl)ccc2-n2c(nnc2[C@H]2CC[C@H](Oc3ccccn3)CC2)C1 [Example 118] | 66 |  | 251
O=C(N[C@H]1Cc2cc(Cl)ccc2-n2c(nnc2[C@H]2CC[C@H](Oc3ccccn3)CC2)C1)C1CC1 [Example 119, N-{(5S)-8-chloro-1-[trans-4-(pyridin-2-yloxy)cyclohexyl]-5,6-dihydro-4H-[1,2,4]triazolo[4,3-a][1]benzazepin-5-yl}cyclopropanecarboxamide] | 27 |  | 111
CC(C)C(=O)N[C@H]1Cc2cc(Cl)ccc2-n2c(nnc2[C@H]2CC[C@H](Oc3ccccn3)CC2)C1 [Example 120, N-{(5S)-8-chloro-1-[trans-4-(pyridin-2-yloxy)cyclohexyl]-5,6-dihydro-4H-[1,2,4]triazolo[4,3-a][1]benzazepin-5-yl}-2-methylpropanamide] | 52 |  | 465
O=C(N[C@H]1Cc2cc(Cl)ccc2-n2c(nnc2[C@H]2CC[C@H](Oc3ccccn3)CC2)C1)C1CCC1 [Example 121, N-{(5S)-8-chloro-1-[trans-4-(pyridin-2-yloxy)cyclohexyl]-5,6-dihydro-4H-[1,2,4]triazolo[4,3-a][1]benzazepin-5-yl}cyclobutanecarboxamide] | 79 |  | 442
Clc1ccc2c(c1)C[C@H](N1CCOCC1)Cc1nnc([C@H]3CC[C@H](Oc4ccccn4)CC3)n1-2 [Example 122, (5S)-8-chloro-5-(morpholin-4-yl)-1-[trans-4-(pyridin-2-yloxy)cyclohexyl]-5,6-dihydro-4H-[1,2,4]triazolo[4,3-a][1]benzazepine] | 3 |  | 14
CC(C)(C)C(=O)N[C@@H]1Cc2cc(Cl)ccc2-n2c(nnc2[C@H]2CC[C@H](Oc3ccccn3)CC2)C1 [Example 123, N-{(5R)-8-chloro-1-[trans-4-(pyridin-2-yloxy)cyclohexyl]-5,6-dihydro-4H-[2,4]triazolo[4,3-a][1]benzazepin-5-yl}-2,2-dimethylpropanamide] | 2.1 |  | 6.3
CC(C)C(=O)N[C@@H]1Cc2cc(Cl)ccc2-n2c(nnc2[C@H]2CC[C@H](Oc3ccccn3)CC2)C1 [Example 124, N-{(5R)-8-chloro-1-[trans-4-(pyridin-2-yloxy)cyclohexyl]-5,6-dihydro-4H-[1,2,4]triazolo[4,3-a][1]benzazepin-5-yl}-2-methylpropanamide] | 1.7 |  | 5.1
O=C(N[C@@H]1Cc2cc(Cl)ccc2-n2c(nnc2[C@H]2CC[C@H](Oc3ccccn3)CC2)C1)C1CCC1 [Example 125, N-{(5R)-8-chloro-1-[trans-4-(pyridin-2-yloxy)cyclohexyl]-5,6-dihydro-4H-[1,2,4]triazolo[4,3-a][1]benzazepin-5-yl}cyclobutanecarboxamide] | 0.8 |  | 2.3
Clc1ccc2c(c1)C[C@H](N1CCCCC1)Cc1nnc([C@H]3CC[C@H](Oc4ccccn4)CC3)n1-2 [Example 127, (5S)-8-chloro-5-(piperidin-1-yl)-1-[trans-4-(pyridin-2-yloxy)cyclohexyl]-5,6-dihydro-4H-[1,2,4]triazolo[4,3-a][1]benzazepine] | 2.8 |  | 17
CCC(C)N[C@H]1Cc2cc(Cl)ccc2-n2c(nnc2[C@H]2CC[C@H](Oc3ccccn3)CC2)C1 (stereo partly drawn) [Example 128] | 2 |  | 14
CC(C)N1CC[C@]2(CC[C@H](c3nnc4n3-c3ccc(Cl)cc3CC3(C4)OCCO3)CC2)C1=O [Example 129, (5s,8s)-8-(8′-chloro-4′H,6′H-spiro[1,3-dioxolane-2,5-[1,2,4]triazolo[4,3-a][1]benzazepin]-1′-yl)-2-(propan-2-yl)-2-azaspiro[4.5]decan-1-one] | 0.5 |  | 20
COC1Cc2cc(Cl)ccc2-n2c(nnc2[C@H]2CC[C@H](N3CCOCC3)CC2)C1 (stereo partly drawn) [Example 130, 8-chloro-5-methoxy-1-[trans-4-(morpholin-4-yl)cyclohexyl]-5,6-dihydro-4H-[1,2,4]triazolo[4,3-a][1]benzazepine] | 2.4 |  | 6.1
CCOC1Cc2cc(Cl)ccc2-n2c(nnc2[C@H]2CC[C@H](Oc3ccccn3)CC2)C1 (stereo partly drawn) [Example 131, 8-chloro-5-ethoxy-1-[trans-4-(pyridin-2-yloxy)cyclohexyl]-5,6-dihydro-4H-[1,2,4]triazolo[4,3-a][1]benzazepine] | 0.3 |  | 0.7
